Data set [1] deals with HCV replicon in human hepatoma Huh-7 cell line. Briefly: Anti-HCV replicon assay (EC50, luciferase). The class given is cell-based. Particulars: Hepatitis C virus, Huh-7, 72 h. An outline of the steps: (§1)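 Cytotoxicity (CC50) measured by CellTiter-Glo and antiviral activity (EC50) by luciferase signal from lysed cells, both by luminescence. Replicon-bearing Huh-7 cells, 6000 per well, incubated 3 days at 37 °C with threefold-diluted compound (0.5% DMSO for DMSO-dissolved compounds).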

Data set [2] is described as follows: CC50 assay (CellTiter-Glo) in Huh-7 HCV replicon cells. The conditions noted are these: human, 3 days incubation, CellTiter-Glo readout. In kind it is cell-based, human. An outline of the steps:
as §1

Molecules are shown by their SMILES.

In data set [1], `Fc1ccc(-c2ccc3nc(NCc4cncs4)nc(NCC(F)(F)F)c3n2)cc1` [Example 248, 6-(4-Fluoro-phenyl)-N2-thiazol-5-ylmethyl-N4-(2,2,2-trifluoro-ethyl)-pyrido[3,2-d]pyrimidine-2,4-diamine] showed an EC50 of less than 0.1 µM. Besides, the half-maximal cytotoxic concentration (CC50) at 3 days in data set [2] was 5 to 25 µM.
The like results for `CC(Nc1nc(NCC(F)(F)F)c2nc(-c3ccc(F)cc3)ccc2n1)c1ccc(S(N)(=O)=O)cc1` (stereo not shown) [Example 249, 4-{1-[6-(4-Fluoro-phenyl)-4-(2,2,2-trifluoro-ethylamino)-pyrido[3,2-d]pyrimidin-2-ylamino]-ethyl}-benzenesulfonamide] were, in that order, less than 0.1 µM and less than 5 µM.
The like results for `Fc1ccc(-c2ccc3nc(NCc4ccc(-n5cncn5)cc4)nc(NCC(F)(F)F)c3n2)cc1` [Example 251, 6-(4-Fluoro-phenyl)-N2-(4-[1,2,4]triazol-1-yl-benzyl)-N4-(2,2,2-trifluoro-ethyl)-pyrido[3,2-d]pyrimidine-2,4-diamine] were, in that order, less than 0.1 µM and more than 25 µM.
Take `COCCNc1nc(NCC(F)(F)F)c2nc(-c3ccc(F)cc3)ccc2n1` [Example 252, 6-(4-Fluoro-phenyl)-N2-(2-methoxy-ethyl)-N4-(2,2,2-trifluoro-ethyl)-pyrido[3,2-d]pyrimidine-2,4-diamine]: the concentration giving a half-maximal response (EC50) in data set [1] is less than 0.1 µM. Also, the CC50 at 3 days in data set [2] lay in the range of 5 to 25 µM.
The like results for `Fc1ccc(-c2ccc3nc(NCc4ncco4)nc(NCC(F)(F)F)c3n2)cc1` [Example 253, 6-(4-Fluoro-phenyl)-N2-oxazol-2-ylmethyl-N4-(2,2,2-trifluoro-ethyl)-pyrido[3,2-d]pyrimidine-2,4-diamine] were, in that order, less than 0.1 µM and less than 5 µM.
The like results for `Fc1ccc(-c2ccc3nc(NCCn4cncn4)nc(NCC(F)(F)F)c3n2)cc1` [Example 254, 6-(4-Fluoro-phenyl)-N2-(2-[1,2,4]triazol-1-yl-ethyl)-N4-(2,2,2-trifluoro-ethyl)-pyrido[3,2-d]pyrimidine-2,4-diamine] were, in that order, less than 0.1 µM and more than 25 µM.
With `CC(Nc1nc(NCC(F)(F)F)c2nc(-c3ccc(F)cc3)ccc2n1)c1ccc(-n2cncn2)cc1` (stereo not shown) [Example 255, 6-(4-Fluoro-phenyl)-N2-[1-(4-[1,2,4]triazol-1-yl-phenyl)-ethyl]-N4-(2,2,2-trifluoro-ethyl)-pyrido[3,2-d]pyrimidine-2,4-diamine], the EC50 in data set [1] was less than 0.1 µM. This molecule had a CC50 at 3 days in data set [2] of 5 to 25 µM.
Molecule `CCOP(=O)(CCNc1nc(NCC(F)(F)F)c2nc(-c3ccc(F)cc3)ccc2n1)OCC` [Example 256, {2-[6-(4-Fluoro-phenyl)-4-(2,2,2-trifluoro-ethylamino)-pyrido[3,2-d]pyrimidin-2-ylamino]-ethyl}-phosphonic acid diethyl ester] gave an EC50 in data set [1] of less than 0.1 µM. This molecule gave a half-maximal cytotoxic concentration (CC50) at 3 days in data set [2] of 5 to 25 µM.
The like results for `Fc1ccc(-c2ccc3nc(NCCN4CCOCC4)nc(NCC(F)(F)F)c3n2)cc1` [Example 258, 6-(4-Fluoro-phenyl)-N2-(2-morpholin-4-yl-ethyl)-N4-(2,2,2-trifluoro-ethyl)-pyrido[3,2-d]pyrimidine-2,4-diamine] were, in that order, less than 0.1 µM and less than 5 µM.
The like results for `NS(=O)(=O)CCNc1nc(NCC(F)(F)F)c2nc(-c3ccc(F)cc3)ccc2n1` [Example 259, 2-[6-(4-Fluoro-phenyl)-4-(2,2,2-trifluoro-ethylamino)-pyrido[3,2-d]pyrimidin-2-ylamino]-ethanesulfonic acid amide] were, in that order, less than 0.1 µM and 5 to 25 µM.
The like results for `NC(=O)CCNc1nc(NCC(F)(F)F)c2nc(-c3ccc(F)cc3)ccc2n1` [Example 260, 3-[6-(4-Fluoro-phenyl)-4-(2,2,2-trifluoro-ethylamino)-pyrido[3,2-d]pyrimidin-2-ylamino]-propionamide] were, in that order, less than 0.1 µM and 5 to 25 µM.
The molecule `NC(=O)c1ccc(CNc2nc(NCC(F)(F)F)c3nc(-c4ccc(F)cc4)ccc3n2)cc1` [Example 261, 4-{[6-(4-Fluoro-phenyl)-4-(2,2,2-trifluoro-ethylamino)-pyrido[3,2-d]pyrimidin-2-ylamino]-methyl}-benzamide] registered an EC50 in data set [1] of less than 0.1 µM. In data set [2], this molecule registered a 50% cytotoxic concentration (CC50) at 3 days of less than 5 µM.
For `CCOc1nc(NCc2ccc(C(=O)N(C)C)cc2)nc2ccc(-c3ccc(F)cc3)nc12` [Example 262, 4-{[4-Ethoxy-6-(4-fluoro-phenyl)-pyrido[3,2-d]pyrimidin-2-ylamino]-methyl}-N,N-dimethyl-benzamide], in data set [1], the 50% effective concentration (EC50) is less than 0.1 µM. This molecule also gave a CC50 at 3 days in data set [2] of more than 25 µM.
`CCOc1nc(NCc2cccnc2)nc2ccc(-c3ccc(F)cc3)nc12` [Example 263, [4-Ethoxy-6-(4-fluoro-phenyl)-pyrido[3,2-d]pyrimidin-2-yl]-pyridin-3-ylmethyl-amine] had an EC50 in data set [1] of less than 0.1 µM. Moreover, the cytotoxic concentration (CC50) at 3 days in data set [2] was more than 25 µM.
`CCOc1nc(NCCOC)nc2ccc(-c3ccc(F)cc3)nc12` [Example 264, [4-Ethoxy-6-(4-fluoro-phenyl)-pyrido[3,2-d]pyrimidin-2-yl]-(2-methoxy-ethyl)-amine] yielded an EC50 in data set [1] of less than 0.1 µM. For the same molecule, the CC50 at 3 days in data set [2] is more than 25 µM.
In data set [1], `CCOc1nc(NCCS(N)(=O)=O)nc2ccc(-c3ccc(F)cc3)nc12` [Example 265, 2-[4-Ethoxy-6-(4-fluoro-phenyl)-pyrido[3,2-d]pyrimidin-2-ylamino]-ethanesulfonic acid amide] gave a concentration for a half-maximal effect (EC50) of less than 0.1 µM. In data set [2], this molecule gave a 50% cytotoxic concentration (CC50) at 3 days of 5 to 25 µM.
Molecule `CCOc1nc(NCc2ncco2)nc2ccc(-c3ccc(F)cc3)nc12` [Example 266, [4-Ethoxy-6-(4-fluoro-phenyl)-pyrido[3,2-d]pyrimidin-2-yl]-oxazol-2-ylmethyl-amine] returned an EC50 in data set [1] of less than 0.1 µM. Also, the CC50 at 3 days in data set [2] was more than 25 µM.
The like results for `CCOc1nc(NCc2ccc(-n3cncn3)cc2)nc2ccc(-c3ccc(F)cc3)nc12` [Example 267, [4-Ethoxy-6-(4-fluoro-phenyl)-pyrido[3,2-d]pyrimidin-2-yl]-(4-[1,2,4]triazol-1-yl-benzyl)-amine] were, in that order, less than 0.1 µM and more than 25 µM.
The like results for `CCOc1nc(NCc2ccc(C(N)=O)cc2)nc2ccc(-c3ccc(F)cc3)nc12` [Example 268, 4-{[4-Ethoxy-6-(4-fluoro-phenyl)-pyrido[3,2-d]pyrimidin-2-ylamino]-methyl}-benzamide] were, in that order, less than 0.1 µM and 5 to 25 µM.
The like results for `CCOc1nc(NCc2ccc(CS(=O)(=O)NC)cc2)nc2ccc(-c3ccc(F)cc3)nc12` [Example 269, C-(4-{[4-Ethoxy-6-(4-fluoro-phenyl)-pyrido[3,2-d]pyrimidin-2-ylamino]-methyl}-phenyl)-N-methyl-methanesulfonamide] were, in that order, less than 0.1 µM and 5 to 25 µM.
Consider `CCOc1nc(NCc2ccc(CS(N)(=O)=O)cc2)nc2ccc(-c3ccc(F)cc3)nc12` [Example 270], for which the half-maximal effective concentration (EC50) in data set [1] is less than 0.1 µM. The same molecule gave a CC50 at 3 days in data set [2] of 5 to 25 µM.
The like results for `CCOc1nc(NCc2ccc(NS(C)(=O)=O)cc2)nc2ccc(-c3ccc(F)cc3)nc12` [Example 271, N-(4-{[4-Ethoxy-6-(4-fluoro-phenyl)-pyrido[3,2-d]pyrimidin-2-ylamino]-methyl}-phenyl)-methanesulfonamide] were, in that order, less than 0.1 µM and 5 to 25 µM.
For the molecule `NC(=O)c1ccc(-c2ccc3nc(NCc4ccc(F)cc4)nc(NCC(F)(F)F)c3n2)cc1` [Example 272, 4-[2-(4-Fluoro-benzylamino)-4-(2,2,2-trifluoro-ethylamino)-pyrido[3,2-d]pyrimidin-6-yl]-benzamide], in data set [1], the half-maximal effective concentration (EC50) was less than 0.1 µM. The half-maximal cytotoxic concentration (CC50) at 3 days in data set [2] was less than 5 µM.
Take `CN(CCS(C)(=O)=O)c1nc(NCc2ccc(F)cc2)nc2ccc(-c3ccc(C(N)=O)cc3)nc12` [Example 273, 4-{2-(4-Fluoro-benzylamino)-4-[(2-methanesulfonyl-ethyl)-methyl-amino]-pyrido[3,2-d]pyrimidin-6-yl}-benzamide]: the 50% effective concentration (EC50) in data set [1] was less than 0.1 µM. In addition, in data set [2], the cytotoxic concentration (CC50) at 3 days lay within 5 to 25 µM.
In data set [1], `CS(=O)(=O)CCNc1nc(NCc2ccc(F)cc2)nc2ccc(-c3ccc(C(N)=O)cc3)nc12` [Example 274, 4-[2-(4-Fluoro-benzylamino)-4-(2-methanesulfonyl-ethylamino)-pyrido[3,2-d]pyrimidin-6-yl]-benzamide] came in with a concentration giving a half-maximal response (EC50) of less than 0.1 µM. This molecule also returned a half-maximal cytotoxic concentration (CC50) at 3 days in data set [2] of less than 5 µM.
`O=C1C(O)CCN1c1ccc(-c2ccc3nc(NCc4ccc(F)cc4)nc(NCC(F)(F)F)c3n2)cc1` (stereo not shown) [Example 275, 1-{4-[2-(4-Fluoro-benzylamino)-4-(2,2,2-trifluoro-ethylamino)-pyrido[3,2-d]pyrimidin-6-yl]-phenyl}-3-hydroxy-pyrrolidin-2-one] had an EC50 in data set [1] of less than 0.1 µM. Moreover, the CC50 at 3 days in data set [2] was less than 5 µM.
Molecule `CS(=O)(=O)N(CCO)c1cccc(-c2ccc3nc(NCc4ccc(F)cc4)nc(NCC(F)(F)F)c3n2)c1` [Example 276, N-{3-[2-(4-Fluoro-benzylamino)-4-(2,2,2-trifluoro-ethylamino)-pyrido[3,2-d]pyrimidin-6-yl]-phenyl}-N-(2-hydroxy-ethyl)-methanesulfonamide] returned an EC50 in data set [1] of less than 0.1 µM. Besides, in data set [2], the CC50 at 3 days lay in the range of 5 to 25 µM.
For the molecule `CC(C)(N)C(=O)Nc1ccc(-c2ccc3nc(NCc4ccc(F)cc4)nc(NCC(F)(F)F)c3n2)cc1` [Example 277, 2-Amino-N-{4-[2-(4-fluoro-benzylamino)-4-(2,2,2-trifluoro-ethylamino)-pyrido[3,2-d]pyrimidin-6-yl]-phenyl}-2-methyl-propionamide], in data set [1], the EC50 was less than 0.1 µM. For the same molecule, in data set [2], the CC50 at 3 days was less than 5 µM.
On to `O=C(Nc1ccc(-c2ccc3nc(NCc4ccc(F)cc4)nc(NCC(F)(F)F)c3n2)cc1)C1(O)CC1` [Example 278, 1-Hydroxy-cyclopropanecarboxylic acid {4-[2-(4-fluoro-benzylamino)-4-(2,2,2-trifluoro-ethylamino)-pyrido[3,2-d]pyrimidin-6-yl]-phenyl}-amide], for which the concentration for a half-maximal effect (EC50) in data set [1] was less than 0.1 µM. In data set [2], the CC50 at 3 days lay within 5 to 25 µM.
